Experimental data published in paper PMC4357015, “Structure, Function and Inhibition of the Phosphoethanolamine Methyltransferases of the Human Malaria Parasites Plasmodium vivax and Plasmodium knowlesi” (Scientific Reports, 2015).

Columns and labels:
PvPMT = molecular target: T1, PvPMT (Plasmodium vivax, UniProt A5K867); assay: radiometric PMT transmethylation assay, inhibition of PvPMT; type: biochemical; conditions: P-Etn 2 mM, SAM 1.5 mM; inhibitor 0, 100, 500, 1000 μM; read-out: IC50, inhibition of PvPMT activity
T1 sequence (A5K867 1-264): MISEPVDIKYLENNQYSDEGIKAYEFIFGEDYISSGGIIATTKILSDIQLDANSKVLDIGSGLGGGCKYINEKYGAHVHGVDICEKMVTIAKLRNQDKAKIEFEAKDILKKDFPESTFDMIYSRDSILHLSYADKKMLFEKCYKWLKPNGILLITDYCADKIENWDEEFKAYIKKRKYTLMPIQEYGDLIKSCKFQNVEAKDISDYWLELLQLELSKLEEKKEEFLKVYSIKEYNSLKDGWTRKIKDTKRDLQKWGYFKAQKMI
Protocol: Figure 3 Amodiaquine (AQ) and NSC158011 inhibit the activity of PvPMT and PkPMT. Enzyme inhibition assays with different concentrations of Amodiaquine (AQ), NSC158011 and Chloroquine (CQ) were carried out at constant P-Etn (2 mM) and SAM (1.5 mM) concentrations. The activity in the absence of any drug was taken as 100% and % enzyme activity was calculated in the presence of different drug concentrations (100, 500, 1000 μM). To determine the concentration that results in 50% inhibition of enzyme activity (IC50), the data were fitted to a non-linear regression analysis in the following equation Y = 100/(1 + ([X]/IC50)), where Y is % enzyme activity and X is drug concentration using Graph pad software.
For enzyme kinetics studies recombinant histidine-tagged proteins were expressed using 1 mM IPTG for 4 h, purified using Ni-affinity purification and dialyzed. As expected, purified proteins migrated in SDS-PAGE gels at approximately 31 kDa. The purified proteins were stored in HEPES-KOH buffer (pH 7.4) at 4°C and were assayed within a month of purification. During this time, the integrity of the protein was assessed by SDS-PAGE. The kinetic properties of enzymes were assessed using radiometric assay wherein incorporation of radioactive labeled methyl donor (100nCi [methyl-^14C] SAM, Perkin elmer NEC363010UC) or (200nCi [methyl-^3H] SAM, Perkin Elmer NET155H250UC) was measured. […]

pem1Δpem2Δ-pYES2.1-PkPMT = assay: yeast growth inhibition, pem1Δpem2Δ strain expressing PkPMT; type: cell-based; conditions: 100 μM AQ
Protocol: Figure 5 PMT-dependent inhibition of growth and PC biosynthesis by amodiaquine and NSC158011. (A–C): Growth curves of pem1Δpem2Δ-pYES2.1-PkPMT (A), pem1Δpem2Δ-pYES2.1-PvPMT (B), or Wild Type-pYES2.1- (C) strains grown in minimal medium containing 4% galactose and 1 mM ethanolamine in the presence or absence of 100 μM choline and 100 μM amodiaquine (AQ) as indicated. Growth curves of pem1Δpem2Δ-pYES2.1-PkPMT (D), pem1Δpem2Δ-pYES2.1-PvPMT (E), or Wild Type-pYES2.1- (F) strains maintained in minimal medium containing 4% galactose and 1 mM ethanolamine in the presence or absence of 100 μM choline and 10 μM NSC158011.
pem1Δpem2Δ-pYES2.1, pem1Δpem2Δ-pYES2.1-PkPMT, pem1Δpem2Δ-pYES2.1-PvPMT, and pem1Δpem2Δ-pYES2.1-PfPMT yeast strains were pre-grown overnight in uracil dropout synthetic galactose (4%) (SG-URA) medium supplemented with 2 mM ethanolamine (Etn). Cells were diluted to an A600 = 0.001 in fresh SG-URA medium supplemented with 2 mM Etn in the presence or absence of 100 μM Choline (Cho). Cells were grown at 30°C and the growth was monitored by measuring the A600. […]

## CCN(CC)Cc1cc(Nc2ccnc3cc(Cl)ccc23)ccc1O [AQ, amodiaquine]
PvPMT
  IC50: 220 µM
pem1Δpem2Δ-pYES2.1-PkPMT; 100 μM choline
  growth of pem1Δpem2Δ+PkPMT strain in media supplemented with choline: no effect
pem1Δpem2Δ-pYES2.1-PkPMT; ethanolamine medium without choline
  growth of pem1Δpem2Δ+PkPMT strain: significantly inhibited
